Target: BRD4 (Homo sapiens, UniProt O60885)
Experiment: Time resolved fluorescence resonance energy transfer (TR-FRET) binding assay, bromodomain BRD4
Conditions: one of the FRET assays described; read-out: FRET BRD4 IC50

| Compound | IC50 [nM] |
| --- | --- |
| Cc1nnn(C)c1-c1cnc2c3ccc(Cl)nc3n([C@@H](c3ccccc3)C3CCOCC3)c2c1 [Example 15, 11-Chloro-5-(dimethyl-1H-1,2,3-triazol-5-yl)-8-[(R)-oxan-4-yl(phenyl)methyl]-3,8,10-triazatricyclo[7.4.0.0^2,^7]trideca-1(9),2(7),3,5,10,12-hexaene] | < 1500 |
| Cc1nnn(C)c1-c1cnc2c3ccnc(F)c3n([C@H](c3ccccc3F)C3CCOCC3)c2c1 [Example 29, 5-(Dimethyl-1H-1,2,3-triazol-5-yl)-10-fluoro-8-[(S)-(2-fluorophenyl)(oxan-4-yl)methyl]-3,8,11-triazatricyclo[7.4.0.0^2,^7]trideca-1(13),2(7),3,5,9,11-hexaene] | < 1 |
| COc1nccc2c1c1ncc(-c3c(C)nnn3C)cc1n2[C@H](c1ccccc1F)C1CCOCC1 [Example 30, 5-(Dimethyl-1H-1,2,3-triazol-5-yl)-8-[(S)-(2-fluorophenyl)(oxan-4-yl)methyl]-13-methoxy-3,8,12-triazatricyclo[7.4.0.0^2,^7]trideca-1(9),2(7),3,5,10,12-hexaene] | < 1 |
| CSc1nccc2c3ncc(-c4c(C)nnn4C)cc3n([C@H](c3ccccc3F)C3CCOCC3)c12 [Example 31, 5-(Dimethyl-1H-1,2,3-triazol-5-yl)-8-[(S)-(2-fluorophenyl)(oxan-4-yl)methyl]-10-(methylsulfanyl)-3,8,11-triazatricyclo[7.4.0.0^2,^7]trideca-1(13),2(7),3,5,9,11-hexaene] | < 10 |
| Cc1nnn(C)c1-c1cnc2c3cc(S(C)(=O)=O)ncc3n([C@H](c3ccccc3F)C3CCOCC3)c2c1 [Example 32, 5-(Dimethyl-1H-1,2,3-triazol-5-yl)-8-[(S)-(2-fluorophenyl)(oxan-4-yl)methyl]-12-methanesulfonyl-3,8,11-triazatricyclo[7.4.0.0^2,^7]trideca-1(13),2(7),3,5,9,11-hexaene] | < 10 |
| Cc1nnn(C)c1-c1cnc2c3c(S(C)(=O)=O)nccc3n([C@H](c3ccccc3)C3CCOCC3)c2c1 [Example 33, 5-(Dimethyl-1H-1,2,3-triazol-5-yl)-13-methanesulfonyl-8-[(S)-oxan-4-yl(phenyl)methyl]-3,8,12-triazatricyclo[7.4.0.0^2,^7]trideca-1(13),2(7),3,5,9,11-hexaene] | < 1 |
| Cc1nnn(C)c1-c1cnc2c3cncc(Cl)c3n([C@H](c3ccccc3)C3CCOCC3)c2c1 [Example 34, 10-Chloro-5-(dimethyl-1H-1,2,3-triazol-5-yl)-8-[(S)-oxan-4-yl(phenyl)methyl]-3,8,12-triazatricyclo[7.4.0.0^2,^7]trideca-1(13),2(7),3,5,9,11-hexaene] | < 10 |
| Cc1nnn(C)c1-c1cnc2c3cnccc3n([C@H](c3ccccc3)C3CCOCC3)c2c1 [Example 35, 5-(Dimethyl-1H-1,2,3-triazol-5-yl)-8-[(S)-oxan-4-yl(phenyl)methyl]-3,8,12-triazatricyclo[7.4.0.0^2,^7]trideca-1(13),2(7),3,5,9,11-hexaene] | < 10 |
| Cc1nnn(C)c1-c1cnc2c3c(Cl)ncc(Cl)c3n([C@H](c3ccccc3)C3CCOCC3)c2c1 [Example 36, 10,13-Dichloro-5-(dimethyl-1H-1,2,3-triazol-5-yl)-8-[(S)-oxan-4-yl(phenyl)methyl]-3,8,12-triazatricyclo[7.4.0.0^2,^7]trideca-1(13),2(7),3,5,9,11-hexaene] | < 10 |
| Cc1nnn(C)c1-c1cnc2c3c(F)ncc(Cl)c3n([C@H](c3ccccc3)C3CCOCC3)c2c1 [Example 37, 10-Chloro-5-(dimethyl-1H-1,2,3-triazol-5-yl)-13-fluoro-8-[(S)-oxan-4-yl(phenyl)methyl]-3,8,12-triazatricyclo[7.4.0.0^2,^7]trideca-1(13),2(7),3,5,9,11-hexaene] | < 10 |
| COc1ncc(Br)c2c1c1ncc(-c3c(C)nnn3C)cc1n2[C@H](c1ccccc1)C1CCOCC1 [Example 38, 10-Bromo-5-(dimethyl-1H-1,2,3-triazol-5-yl)-13-methoxy-8-[(S)-oxan-4-yl(phenyl)methyl]-3,8,12-triazatricyclo[7.4.0.0^2,^7]trideca-1(13),2(7),3,5,9,11-hexaene] | < 10 |
| COc1ncc(Cl)c2c1c1ncc(-c3c(C)nnn3C)cc1n2[C@H](c1ccccc1)C1CCOCC1 [Example 39, 10-Chloro-5-(dimethyl-1H-1,2,3-triazol-5-yl)-13-methoxy-8-[(S)-oxan-4-yl(phenyl)methyl]-3,8,11-triazatricyclo[7.4.0.0^2,^7]trideca-1(13),2(7),3,5,9,11-hexaene] | < 10 |
| COc1ncc(Cl)c2c1c1ncc(-c3c(C)nnn3C)cc1n2[C@H](c1ccccc1)C1CCOCC1 [Example 40, 10-Chloro-5-(dimethyl-1H-1,2,3-triazol-5-yl)-13-methoxy-8-[(S)-oxan-4-yl(phenyl)methyl]-3,8,12-triazatricyclo[7.4.0.0^2,^7]trideca-1(13),2(7),3,5,9,11-hexaene] | < 1 |
| Cc1nnn(C)c1-c1cnc2c3c(N(C)C)ncc(Cl)c3n([C@H](c3ccccc3)C3CCOCC3)c2c1 [Example 41, 10-Chloro-5-(dimethyl-1H-1,2,3-triazol-5-yl)-N,N-dimethyl-8-[(S)-oxan-4-yl(phenyl)methyl]-3,8,12-triazatricyclo[7.4.0.0^2,^7]trideca-1(13),2(7),3,5,9,11-hexaen-13-amine] | < 1 |
| Cc1nnn(C)c1-c1cnc2c3c(S(C)(=O)=O)ncc(Cl)c3n([C@H](c3ccccc3)C3CCOCC3)c2c1 [Example 42, 10-Chloro-5-(dimethyl-1H-1,2,3-triazol-5-yl)-13-methanesulfonyl-8-[(S)-oxan-4-yl(phenyl)methyl]-3,8,12-triazatricyclo[7.4.0.0^2,^7]trideca-1(13),2(7),3,5,9,11-hexaene] | < 10 |
| CCOc1ncc(Cl)c2c1c1ncc(-c3c(C)nnn3C)cc1n2[C@H](c1ccccc1)C1CCOCC1 [Example 43, 10-Chloro-5-(dimethyl-1H-1,2,3-triazol-5-yl)-13-ethoxy-8-[(S)-oxan-4-yl(phenyl)methyl]-3,8,12-triazatricyclo[7.4.0.0^2,^7]trideca-1(13),2(7),3,5,9,11-hexaene] | < 1 |
| Cc1nnn(C)c1-c1cnc2c3c(NCC4CC4)ncc(Cl)c3n([C@H](c3ccccc3)C3CCOCC3)c2c1 [Example 44, 10-Chloro-N-(cyclopropylmethyl)-5-(dimethyl-1H-1,2,3-triazol-5-yl)-8-[(S)-oxan-4-yl(phenyl)methyl]-3,8,12-triazatricyclo[7.4.0.0^2,^7]trideca-1(13),2(7),3,5,9,11-hexaen-13-amine] | < 10 |
| COc1ncc(S(C)(=O)=O)c2c1c1ncc(-c3c(C)noc3C)cc1n2[C@H](c1ccccc1)C1CCOCC1 [Example 45, 5-(Dimethyl-1,2-oxazol-4-yl)-10-methanesulfonyl-13-methoxy-8-[(S)-oxan-4-yl(phenyl)methyl]-3,8,12-triazatricyclo[7.4.0.0^2,^7]trideca-1(13),2(7),3,5,9,11-hexaene] | < 1 |
| COc1ncc(S(C)(=O)=O)c2c1c1ncc(-c3c(C)nnn3C)cc1n2[C@H](c1ccccc1)C1CCOCC1 [Example 46, 5-(Dimethyl-1H-1,2,3-triazol-5-yl)-10-methanesulfonyl-13-methoxy-8-[(S)-oxan-4-yl(phenyl)methyl]-3,8,12-triazatricyclo[7.4.0.0^2,^7]trideca-1(13),2(7),3,5,9,11-hexaene] | < 10 |
| [2H]C([2H])([2H])c1nnn(C)c1-c1cnc2c3c(OC)ncc(S(C)(=O)=O)c3n([C@H](c3ccccc3)C3CCOCC3)c2c1 [Example 47, 10-Methanesulfonyl-13-methoxy-5-[4-(^2H3)methyl-1-methyl-1H-1,2,3-triazol-5-yl]-8-[(S)-oxan-4-yl(phenyl)methyl]-3,8,12-triazatricyclo[7.4.0.0^2,^7]trideca-1(13),2(7),3,5,9,11-hexaene] | < 1 |
| COc1ncc(S(C)(=O)=O)c2c1c1ncc(-c3c(C)noc3C)cc1n2[C@H](c1ccccc1F)C1CCOCC1 [Example 48, 5-(Dimethyl-1,2-oxazol-4-yl)-8-[(S)-(2-fluorophenyl)(oxan-4-yl)methyl]-10-methanesulfonyl-13-methoxy-3,8,12-triazatricyclo[7.4.0.0^2,^7]trideca-1(13),2(7),3,5,9,11-hexaene] | < 1 |
| COc1ncc(S(C)(=O)=O)c2c1c1ncc(-c3c(C)noc3C)cc1n2[C@H](c1ccc(F)cc1)C1CCOCC1 [Example 49, 5-(Dimethyl-1,2-oxazol-4-yl)-8-[(S)-(4-fluorophenyl)(oxan-4-yl)methyl]-10-methanesulfonyl-13-methoxy-3,8,12-triazatricyclo[7.4.0.0^2,^7]trideca-1(13),2(7),3,5,9,11-hexaene] | < 1 |
| COc1ncc(S(C)(=O)=O)c2c1c1ncc(-c3c(C)nnn3C)cc1n2[C@H](c1ccccc1F)C1CCOCC1 [Example 50, 5-(Dimethyl-1H-1,2,3-triazol-5-yl)-8-[(S)-(2-fluorophenyl)(oxan-4-yl)methyl]-10-methanesulfonyl-13-methoxy-3,8,12-triazatricyclo[7.4.0.0^2,^7]trideca-1(13),2(7),3,5,9,11-hexaene] | < 1 |
| [2H]C([2H])([2H])c1nnn(C)c1-c1cnc2c3c(OC)ncc(S(C)(=O)=O)c3n([C@H](c3ccccc3F)C3CCOCC3)c2c1 [Example 51, 8-[(S)-(2-Fluorophenyl)(oxan-4-yl)methyl]-10-methanesulfonyl-13-methoxy-5-[4-(^2H3)methyl-1-methyl-1H-1,2,3-triazol-5-yl]-3,8,12-triazatricyclo[7.4.0.0^2,^7]trideca-1(13),2(7),3,5,9,11-hexaene] | < 1 |
| COc1ncc(S(C)(=O)=O)c2c1c1ncc(-c3c(C)nnn3C)cc1n2[C@H](c1ccc(F)cc1)C1CCOCC1 [Example 52, 5-(Dimethyl-1H-1,2,3-triazol-5-yl)-8-[(S)-(4-fluorophenyl)(oxan-4-yl)methyl]-10-methanesulfonyl-13-methoxy-3,8,12-triazatricyclo[7.4.0.0^2,^7]trideca-1(13),2(7),3,5,9,11-hexaene] | < 1 |
| CCOc1ncc(S(C)(=O)=O)c2c1c1ncc(-c3c(C)nnn3C)cc1n2[C@H](c1ccccc1)C1CCOCC1 [Example 53, 5-(Dimethyl-1H-1,2,3-triazol-5-yl)-13-ethoxy-10-methanesulfonyl-8-[(S)-oxan-4-yl(phenyl)methyl]-3,8,12-triazatricyclo[7.4.0.0^2,^7]trideca-1(13),2(7),3,5,9,11-hexaene] | < 1 |
